Experimental data published in ChEMBL document CHEMBL3286343, “Fused Thiazin-3-ones as KCa3.1 Inhibitors” (ACS Med Chem Lett, 2014).

Target: Intermediate conductance calcium-activated potassium channel protein 4 (Homo sapiens, UniProt O15554)
Assay: Inhibition of human KCa3.1 overexpressed in HEK293 cells assessed as thallium influx preincubated for 15 mins followed by thallium/ionomycin addition measured for 50 secs by FLIPR assay
Type: cell-based

Intermediate conductance calcium-activated potassium channel protein 4, sequence (O15554 whole entry): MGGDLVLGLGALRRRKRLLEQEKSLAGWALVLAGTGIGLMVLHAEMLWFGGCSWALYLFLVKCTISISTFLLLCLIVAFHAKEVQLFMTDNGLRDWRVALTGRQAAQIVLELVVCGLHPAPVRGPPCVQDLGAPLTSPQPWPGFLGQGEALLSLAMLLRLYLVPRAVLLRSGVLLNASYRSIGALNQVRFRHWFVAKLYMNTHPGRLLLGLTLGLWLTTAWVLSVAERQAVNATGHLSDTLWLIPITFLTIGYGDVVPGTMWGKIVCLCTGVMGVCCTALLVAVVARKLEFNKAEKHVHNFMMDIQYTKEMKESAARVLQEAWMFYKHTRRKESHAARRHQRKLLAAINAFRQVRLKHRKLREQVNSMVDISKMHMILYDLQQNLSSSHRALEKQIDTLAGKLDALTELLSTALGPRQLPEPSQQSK

| IC50 [nM] | SMILES |
| --- | --- |
| 39 | CC(c1ccc(F)c(OC(F)(F)F)c1)N1C(=O)CS(=O)(=O)c2ccsc21 (configuration not stated) |
| 60 | CC(c1ccc(F)c(OC(F)(F)F)c1)N1C(=O)CSc2ncsc21 (configuration not stated) |
